{"source": "paper PMC10783034", "about": "“Pharmacokinetic and pharmacodynamic evaluation of the atypical tetracyclines chelocardin and amidochelocardin in murine infection models” (Microbiology Spectrum, 2023)", "key": {"[1]": {"test_system": "K. pneumoniae strains", "set-up": "method as in PMID 32962088", "details": "selection of different K. pneumoniae strains; cited from earlier work"}, "[2]": {"test": "Histopathological analysis of kidneys and bladder in the ascending urinary tract infection model (satellite groups)", "type": "in vivo, mice", "set-up": "key to histopathological score Pelvis: 1 = mild; 2 = moderate; 3 = severe; histopathological score Papilla / histopathological score Bladder: scale not given here", "details": "for histopathological findings in bladder / histopathological findings in kidneys: infected mice, CHD/CDCHD 12 mg/kg SC BID, gentamicin 100 mg/kg SC BID", "method": "The model was conducted as described previously ([27], [60]). In brief, n = 21 animals were used per group in the main study, and n = 3 animals per group in satellite groups for histopathological analysis. Three days before the start of the study and during the study, mice had free access to 5% glucose as drinking water. Fresh overnight colonies of E. coli from a 5% horse blood agar plate were suspended in PBS pH 7.4 to approximately 10^9 cfu/mL. Approximately 1 hour before inoculation, mice were treated orally with […] Nurofen (20 mg ibuprofen/mL corresponding to approximately 30 mg/kg) as a pain relief. Urine was removed from the bladder by gently pressing the abdomen and mice were anaesthetized with 0.15 mL Zoletil mix SC. Thereafter, the mice were inoculated. A syringe with a catheter, containing the bacterial suspension was inserted via the urethra into the bladder and 50 µL of the inoculum was slowly injected into the bladder. Hereafter, the mouse was placed in the cage and kept in a warming cabinet until fully awake (approximately 4 hours). The mice were treated with CHD (12 mg/kg SC BID), CDCHD (12 mg/kg SC BID), gentamicin (100 mg/kg SC BID), or vehicle BID (2nd dose was administered approximately 6 hours after the 1st dose on each day) on day 1, that is, first dose around 24 hours post-infection, and day 2 post-inoculation. The mice were observed during the study and scored based on their behavior and clinical signs. Clinical scoring comprised assessment of piloerection in the skin, activity (movement, curiosity), and appearance of eyes. The scoring range comprised 0–4. In our model, a maximum score of 1; thus, only mild discomfort was observed. On day 3 post-inoculation and after sampling urine, mice were euthanized by cervical dislocation, and bladder and kidneys were removed from 21 mice in each treatment group aseptically for cfu determination. The bladder and kidneys were stored at −80°C and later homogenized in 0.5 or 1 mL saline, respectively. Colony counts of urine were determined immediately. From the three additional mice in each treatment group (satellite groups), urine and plasma were sampled and frozen at −80°C, and bladders, kidneys, and liver were collected in 4% buffered formalin. Cfu was determined in urine samples within 2–3 hours after sampling. Frozen organs were thawed and homogenized with steel beads using a tissue lyser. All samples, urine, kidney, and bladder, were 10-fold diluted in saline and 20 µL spots were applied on blue agar plates in duplicates. In addition, undiluted samples of urine (2–100 μL depending on the available amount of urine) were spread on a separate agar plate to determine the colony counts at the lowest possible detection level. All agar plates were incubated for 18–22 hours at 35°C in ambient air.\nApproximately 3 µm thick sections of formalin-fixed, paraffin-embedded samples of liver and kidney were analyzed blinded, and randomized to the experimental groups by a trained veterinarian. […] Kidneys were analyzed for changes in the glomeruli (not found), tubular dilation (1 = mild or up to 20% of tubuli affected, 2 = moderate or 25-40% of tubuli affected, 3 = severe 50% or more), and inflammatory infiltrate in the pelvis (1 = mild, 2 = moderate, 3 = severe)."}, "[3]": {"test_system": "K. pneumoniae ATCC 43816", "test": "MIC determination", "type": "cell-based", "details": "MHB (not cation-adjusted) medium", "method": "(§1) The assay was conducted as described previously ([54]) with the following modifications. The MIC was tested against the K. pneumoniae strain ATCC 43816 in an MHB (not cation-adjusted) medium. CHD and CDCHD were tested in concentrations ranging from 0.078 to 10 µg/mL. Moreover, the MIC was determined for the following strains: K. pneumoniae DSM-30104, E. faecium DSM-20477, S. aureus DSM-346, P. aeruginosa DSM-11128, A. baumannii DSM-30008, E. aerogenes DSM-30053, E. coli ATCC 25922, and E. coli C175-94. All strains were grown in MHB medium, except for E. faecium, which was grown in TSB. CHD, epi-CDH, and CDCHD were tested in concentrations ranging from 0.125 to 64 µg/mL as described previously ([19])."}, "[4]": {"test_system": "ESKAPE pathogens", "test": "MIC determination against a variety of ESKAPE pathogens", "type": "cell-based", "details": "against A. baumannii, P. aeruginosa, and E. aerogenes", "method": "as §1"}}}
{"compound": "Cc1ccc2c(C)c3c(c(O)c2c1O)C(=O)C1(O)C(=O)C(C(N)=O)=C(O)C(N)C1C3", "note": "(stereo not shown) [CDCHD, 2-carboxamido-2-deacetyl-chelocardin]", "values": [{"measurement": "MIC", "setting": "[1]", "result": "~ 4 µg/mL"}, {"measurement": "histopathological score Bladder", "setting": "[2]; animal No. 1", "result": 0}, {"measurement": "histopathological score Glomeruli", "setting": "[2]; animal No. 1", "result": 0}, {"measurement": "histopathological score Papilla", "setting": "[2]; animal No. 1", "result": 0}, {"measurement": "histopathological score Pelvis", "setting": "[2]; animal No. 1", "result": 0}, {"measurement": "histopathological score Tubuli", "setting": "[2]; animal No. 1", "result": "2 (2 = moderate or 25-40% of tubuli affected)"}, {"measurement": "histopathological score Bladder", "setting": "[2]; animal No. 2", "result": 0}, {"measurement": "histopathological score Glomeruli", "setting": "[2]; animal No. 2", "result": 0}, {"measurement": "histopathological score Papilla", "setting": "[2]; animal No. 2", "result": 0}, {"measurement": "histopathological score Pelvis", "setting": "[2]; animal No. 2", "result": 1}, {"measurement": "histopathological score Tubuli", "setting": "[2]; animal No. 2", "result": "2 (2 = moderate or 25-40% of tubuli affected)"}, {"measurement": "histopathological score Bladder", "setting": "[2]; animal No. 3", "result": 0}, {"measurement": "histopathological score Glomeruli", "setting": "[2]; animal No. 3", "result": 0}, {"measurement": "histopathological score Papilla", "setting": "[2]; animal No. 3", "result": 1}, {"measurement": "histopathological score Pelvis", "setting": "[2]; animal No. 3", "result": 0}, {"measurement": "histopathological score Tubuli", "setting": "[2]; animal No. 3", "result": "1 (1 = mild or up to 20% of tubuli affected)"}, {"measurement": "histopathological findings in bladder", "setting": "[2]", "result": "did not show any significant alterations"}, {"measurement": "histopathological findings in kidneys", "setting": "[2]", "result": "a moderate tubulus dilation (resulting in moderate or 20%–40% of tubuli affected) and protein casts"}]}
{"compound": "CC(=O)C1=C(O)[C@H](N)[C@@H]2Cc3c(c(O)c4c(O)c(C)ccc4c3C)C(=O)[C@]2(O)C1=O", "note": "[CHD, chelocardin]", "values": [{"measurement": "MIC", "setting": "[1]", "result": "~ 4 µg/mL"}, {"measurement": "MIC", "setting": "[3]", "result": 5, "unit": "µg/mL"}, {"measurement": "histopathological score Glomeruli", "setting": "[2]; animal No. 1", "result": 0}, {"measurement": "histopathological score Papilla", "setting": "[2]; animal No. 1", "result": 2}, {"measurement": "histopathological score Pelvis", "setting": "[2]; animal No. 1", "result": 0}, {"measurement": "histopathological score Tubuli", "setting": "[2]; animal No. 1", "result": "3 (3 = severe 50% or more)"}, {"measurement": "histopathological score Bladder", "setting": "[2]; animal No. 2", "result": "- 1 1"}, {"measurement": "histopathological score Glomeruli", "setting": "[2]; animal No. 2", "result": 0}, {"measurement": "histopathological score Papilla", "setting": "[2]; animal No. 2", "result": 2}, {"measurement": "histopathological score Pelvis", "setting": "[2]; animal No. 2", "result": 1}, {"measurement": "histopathological score Tubuli", "setting": "[2]; animal No. 2", "result": "3 (3 = severe 50% or more)"}, {"measurement": "histopathological score Bladder", "setting": "[2]; animal No. 3", "result": "- 1 1"}, {"measurement": "histopathological score Glomeruli", "setting": "[2]; animal No. 3", "result": 0}, {"measurement": "histopathological score Papilla", "setting": "[2]; animal No. 3", "result": 0}, {"measurement": "histopathological score Pelvis", "setting": "[2]; animal No. 3", "result": 2}, {"measurement": "histopathological score Tubuli", "setting": "[2]; animal No. 3", "result": "1 (1 = mild or up to 20% of tubuli affected)"}, {"measurement": "histopathological findings in bladder", "setting": "[2]", "result": "mild, focal, submucosal inflammatory aggregates"}, {"measurement": "histopathological findings in kidneys", "setting": "[2]", "result": "moderate tubulus degeneration with vacuolated cytoplasm, accumulation of hyaline droplets, protein casts, and a mild to moderate accumulation of inflammatory cells"}, {"measurement": "activity (in words)", "setting": "[4]", "result": "inactive"}]}
